Source: patent US20040033982A1, “Viral inhibition by n-docosanol” (priority 2001, published 2004)
“Also recorded” adds a separate entry of the source. Where two headings read alike, the source gives them in different places.

Legend:
lipid-enveloped viruses = experiment: Spectrum of antiviral activity against lipid-enveloped viruses in vitro; assay type: cell-based
HSV [1] = experiment: HSV antigens by ELISA, ICP4 immunofluorescence, secondary plaque assay; assay type: cell-based
Source text: Thus, the amounts of both HSV core and envelope protein antigens detectable by ELISA, as well as the numbers of infected cells expressing the intranuclear HSV-specific immediate-early protein, ICP4, by immunofluorescence, are reduced by more than 80%. Finally, the replication of infectious virions as measured in secondary plaque assay cultures is markedly diminished by 99% or more in n-docosanol treated cells.

HSV [2] = experiment: HSV-induced plaques in Vero versus MDBK cells; assay type: cell-based
Source text: (§1) Of the counts that are metabolized in two cells lines, the relative amounts in the major classes of phosphatides that are formed, phosphatidylcholine and phosphatidylethanolamine, are not different in the two cell lines.

HSV-2 = experiment: Fusion of octadecyl rhodamine B chloride-labeled HSV-2 with NC-37 human B cells; assay type: cell-based
Protocol: NC-37 human B cells were inoculated in the presence of 15 mM n-docosanol, the corresponding concentration of Tetronic 908 (0.1 mM) or without addition. Cells were harvested and R-18-labeled HSV-2 was added to aliquots in the presence of compounds at their original concentration. Following incubation at 37° C. for the times indicated, cells were fixed and fluorescence intensity determined by FACScan.
The HSV envelope was labeled with octadecyl rhodamine B chloride (R-18). NC-37 human B cells were inoculated at 2.5×10^5 cells/ml, 25 ml per flask. Cells were incubated overnight at 37° C. with no addition or in the presence of 15 mM n-docosanol or the corresponding concentration of Tetronic 908. […] Fluorescence intensity was measured by using a fluorescence-activated cell sorter (FACScan; Becton-Dickinson).
Because of the selectivity of the inhibitory effects of n-docosanol for lipid-enveloped fusion-dependent viruses and the absence of viricidal effects, we considered the possibility that n-docosanol may inhibit viral entry by altering target cell membranes to prevent effective fusion of viral particles with target cells. To investigate the effects of n-docosanol on HSV fusion with cellular membranes we conducted fluorescence dequenching assays. […] This relieves fluorescence self-quenching and causes an increase in signal intensity.

Friend Virus = Friend Virus replication in primary embryo fibroblast cultures; assay type: cell-based
Vero cells = experiment: Cellular uptake, distribution and metabolism of radiolabeled n-docosanol; assay type: in vitro ADME, African Green monkey
Protocol: FIG. 10 depicts data showing that radioactive metabolites of n-[^14C]docosanol display the properties of phosphatidylcholine and phosphatidylethanolamine. A portion (0.5 ml) of the methanol eluate of the silica lipid fractionation was evaporated under nitrogen, resuspended in 20 μl chloroform:methanol (3:2; v:v) and spotted on a silica thin layer chromatography (TLC) sheet. After development with chloroform:methanol:acetic acid:water (60:50:1:4; v:v:v:v), the positions of standards were determined by staining with iodine vapors and the cpm per fraction determined by scintillation spectrometry after cutting the plastic-backed sheet into 5 mm strips.
FIG. 11 depicts data showing that n-[^14C]-Docosanol is metabolized more by Vero cells than by MDBK cells. Vero or MDBK cells were plated as described. n-[^14C]-docosanol was added to […] (0.24 mM Tetronic 908) and the cultures were incubated 72 hours at 37° C./CO2. Cells were extracted and analyzed on TLC with hexane:diethyl ether:acetic acid (20:30:1; v:vv) as the developing solvent. With this solvent system the polar phosphatides remain at the origin. The position of migration of n-[^14C]-docosanol is indicated. Duplicate plates were treated with an identical suspension lacking the radioactive label, and the numbers of cells in these duplicate plates were determined by counting cells excluding trypan blue with a hemocytometer.
In order to better define the precise mechanism by which n-docosanol exerts its antiviral activity, the cellular uptake, distribution, and metabolism of n-docosanol from surfactant-stabilized suspensions has been studied. The results of such studies have provided some interesting insight into the metabolic basis of the compound's antiviral action. It has been shown that radioactively labeled n-docosanol is progressively incorporated into cultured Vero cells, reaching a peak uptake per cell between 6 and 12 hours after exposure. The process is irreversible, since once the compound is cell-associated it cannot be removed even with extensive washing with cesium bromide, which effectively removes nonspecifically associated cell-bound particles.
Nonmetabolized n-docosanol was previously eluted from the silica with chloroform. As shown, approximately 62% of the counts migrated in the region of phosphatidylcholine and 38% migrated in the region of phosphatidylethanolamine.
as §1

Water solubility = assay type: physicochemical
[3] = saturating concentrations, within 24 hours

SMILES: CCCCCCCCCCCCCCCCCCCCCCO [n-docosanol]
- HUMAN VIRUSES shown to be susceptible (lipid-enveloped viruses): Respiratory Syncytial Virus; also recorded: Cytomegalovirus; also recorded: Influenza A; also recorded: HIV-1; also recorded: Herpes Simplex-1 & 2; also recorded: Varicella Zoster Virus; also recorded: Human Herpesvirus-6
- MURINE VIRUSES shown to be susceptible (lipid-enveloped viruses): Cytomegalovirus; also recorded: Friend Leukemic Virus; also recorded: LP-BM5 Virus
- reduction of HSV core and envelope protein antigens detectable by ELISA (HSV [1]): more than 80%
- reduction of numbers of infected cells expressing ICP4 by immunofluorescence (HSV [1]): more than 80%
- reduction of replication of infectious virions in secondary plaque assay cultures (HSV [1]): ≥ 99%
- effectiveness in inhibiting HSV-induced plaques, Vero versus MDBK cells (HSV [2]): 3-4 fold
- inhibition at 15000 µM (HSV-2; Human alphaherpesvirus 2, NC-37, read-out: inhibition of fluorescent response compared to Tetronic control): ≤ 76%
- inhibition at 15000 µM (HSV-2; Human alphaherpesvirus 2, NC-37, read-out: inhibition of relative increase in fluorescence intensity compared to cells receiving no treatment): ~50%
- activity against replication of Friend Virus (Friend Virus): very potent activity
- total uptake and relative metabolic conversion, Vero versus MDBK cells (Vero cells): 3-4 times higher
- radioactive compound associated with nuclear fractions (Vero cells; after 12 hours of exposure): less than 1%
- radioactive compound contained in cell membranes (Vero cells; after 12 hours of exposure): 75%
- molecules of n-docosanol added to culture that enter the cell (Vero cells; radiolabeled n-docosanol): less than 1 out of 1000
- cell-associated amount (Vero cells; [3]): ~8×10^9 molecules per cell
- fraction of total n-docosanol added that becomes cell-associated (Vero cells; [3]): less than 1%
- water solubility (Water solubility): water-insoluble
